Where “and” joins values, the source holds several entries; their conditions need not be identical. Equal entries are not always repeated.

This data set can be described thus: solvent given as SMILES.

Consider `C=CC1CN2CCC1CC2[C@H](O)c1ccnc2ccc(OC)cc12` (some centres not stated), for which the absorption maximum (in O) came to 347 nm.

For the compound `N#Cc1nn(-c2ccccc2C(F)(F)F)nc1N1CCCC1`, the absorption maximum (in CC#N) is 326 nm.

Where the note is “in CCO”, `CN(C)c1cc(F)c(C(=O)c2cc(F)c(N(C)C)cc2F)cc1F` registered an absorption maximum of 358 nm.

Where the note is “in C1COCCO1”, `CCC12C(=C3C(=C4c5ccc(-c6ccc(C(C)=O)cc6)cc5S(=O)(=O)C41CC)C(F)(F)C(F)(F)C3(F)F)c1ccc(-c3ccc(C(C)=O)cc3)cc1S2(=O)=O` (configuration not stated) gave an absorption maximum of 456 nm.

In the case of `CCOC(=O)c1ccc(C2=Cc3ccccc3P2(=O)c2ccccc2)cc1` (configuration not stated), the absorption maximum (in ClCCl) worked out at 353 nm.

`c1ccc(-c2nc(-c3ccccc3)c(N(c3ccccc3)c3ccccc3)s2)cc1`: under “in ClC(Cl)Cl”, the absorption maximum is 367 nm.

In the case of `O=C1c2ccccc2-c2cnccc21`, the absorption maximum is, setting by setting: (in CC#N) 397.05 nm; (in CCCCCC) 394.16 nm.

Take `CN1CCN(CCCN2c3ccccc3Sc3ccc(C(F)(F)F)cc32)CC1`: the absorption maximum (in CC#N) worked out at 310 nm, the absorption maximum (in CO) is given as 310 nm and the absorption maximum (in O) amounted to 308 nm.

The compound `Cc1ccc(-c2ccccc2)cc1` registered an absorption maximum (in C1CCCCC1) of 257.4 nm.

Consider `c1ccc2c(c1)c1ccccc1n2-c1ccc2c(c1)c1ccccc1n2-c1cc2c3ccccc3n3c4ccccc4c(c1)c23`, for which the absorption maximum (in C1CCOC1) was determined as 344 nm.

Consider `c1ccc2c(-c3cc4c(ccc5sccc54)s3)cccc2c1`, for which the absorption maximum (in ClCCl) came out at 307 nm.

As for `COc1ccc2c3ccc(OC)cc3n(-c3ccc(-c4nnc(-c5c(C)cc(C)cc5C)o4)cc3C)c2c1`, the absorption maximum (in Cc1ccccc1) is on record as 319 nm.

`Cc1cccc2[n+]1[B-](c1ccccc1)(c1ccccc1)c1cccc3c4c5c(cccc5c-2c13)[B-](c1ccccc1)(c1ccccc1)[n+]1c(C)cccc1-4` gave an absorption maximum (in ClCCl) of 542 nm.

On to `CC(C)[Si](C#Cc1c2cc3ccccc3cc2c(C#Cc2ccc(Br)cc2)c2cc3ccccc3cc12)(C(C)C)C(C)C`, for which the absorption maximum (in ClCCl) was 654 nm.

The compound `N#Cc1ccc(-n2nc(C#N)c(N3CCCC3)n2)cc1` had an absorption maximum (in CC#N) of 362 nm.

As for `C(=C\c1nc2ccccc2[nH]1)/c1ccc(-c2nc3c4cccnc4c4ncccc4c3[nH]2)cc1`, the absorption maximum was found to be 381 nm (in C1CCOC1), 376 nm (in CC#N), 375 nm (in CO) and 382 nm (in ClCCl).

`O=C(c1ccc2c3c(sc2c1)-c1ccccc1P3(=O)c1ccccc1)c1c(F)c(F)c(F)c(F)c1F` (configuration not stated): the absorption maximum (in ClCCl) was 368 nm and 381 nm.

The compound `CCCCCCN1C(=O)c2cccc3c(-c4ccc(-c5cc(-c6ccc(Cl)cc6)n(-c6ccccc6)n5)s4)ccc(c23)C1=O` showed an absorption maximum (in ClCCl) of 402 nm.

Regarding `N#Cc1nc2c(nc1C#N)C1c3ccc(N(c4ccccc4)c4ccccc4)cc3C2c2ccc(N(c3ccccc3)c3ccccc3)cc21`, the absorption maximum by setting is: (in C1CCCCC1) 408 nm; (in CC#N) 378 nm; (in Cc1ccccc1) 391 nm; (in ClCCl) 409 nm.

In the case of `c1cc2c3c(cccc3c1)NC(c1ccc3ccc4cccc5ccc1c3c45)N2`, the absorption maximum amounted to 341 nm (in CC#N), 340 nm (in CO), 344 nm (in CS(C)=O) and 344 nm (in Cc1ccccc1).

`CCC(CC)COC1=CC2=C3c4cc(OCC(CC)CC)c(-c5ccccc5)n4[B-](F)(F)[n+]4c3n(c3cc(C(C)(C)C)ccc34)[B-](F)(F)[N+]2=C1c1ccccc1`: the absorption maximum reads like this: (in C1CCOC1) 702 nm; (in CC#N) 694 nm; (in ClCCl) 703 nm.

Turning to `F[B-]1(F)n2cccc2C(c2ccccc2)=C2C=CC(c3ccc(OC4=[N+]5C(=C(c6ccccc6)c6cc(Br)c(Br)n6[B-]5(F)F)C=C4Br)cc3)=[N+]21`, where the note is “in ClC(Cl)Cl”, the absorption maximum amounted to 562 nm.

Compound `c1ccc(/C(=C(\c2ccccc2)c2cc(-c3ccc(-c4ccccc4)cc3)ccc2-c2ccc(-c3ccccc3)cc2)c2cc(-c3ccc(-c4ccccc4)cc3)ccc2-c2ccc(-c3ccccc3)cc2)cc1` showed an absorption maximum (in C1CCOC1) of 302 nm.

As to `CN(C)c1ccc(-c2cc(-c3ccc(C#N)cc3)nc(-c3ccccc3)n2)cc1`, the absorption maximum (in ClC(Cl)Cl) was 376 nm.

`c1ccc2nc3c(nc2c1)c1c2n3CCCN2CCCC1`: the absorption maximum is on record as 419 nm (in CC#N), 408 nm (in CCCCCC) and 441 nm (in CS(C)=O).

Take `COC(=O)c1ccc(/C=C2\C=C(c3ccc([N+](=O)[O-])cc3)N(CC(C)C)C2=O)cc1`: the absorption maximum (in C1COCCO1) was determined as 442 nm.

Consider `Nc1ccc2c(c1)NC(=O)CC(=O)N2`, for which, for the setting “in CS(C)=O”, the absorption maximum came out at 318 nm.

For `CCCCCCCCN1c2ccc(C#Cc3ccc(C(F)(F)F)cc3)cc2Sc2cc(C=O)ccc21`, the absorption maximum was 384.01 nm (in C1CCOC1); 380 nm (in CC#N); 376.01 nm (in CCCCCC); 362 nm (in CO); 389.99 nm (in CS(C)=O); 381.99 nm (in Cc1ccccc1). For the setting “in ClC(Cl)Cl”, this compound yielded an absorption maximum of 389.99 nm.

As for `CC(C)(C)c1ccc2c(c1)c1ccc3cccc4c5cccc6oc(=O)c2c(c65)c1c34`, the absorption maximum (in C1CCOC1) is given as 412 nm.

As to `COc1ccc(/C=C/c2cc(/C=C/c3ccc(N(c4ccccc4)c4ccccc4)cc3)nc(/C=C/c3ccc(N(C)C)cc3)n2)cc1`, the absorption maximum (in ClCCl) is listed as 386 nm.

`COc1ccc(-c2c(-c3ccc(C)cc3)c3n(c2-c2ccc(C)cc2)[B-](F)(F)[N+]2=C(c4ccc(C)cc4)C(/C=C/C(=O)OC4CC[C@@]5(C)C(=CC[C@H]6[C@@H]7CC[C@H]([C@H](C)CCCC(C)C)[C@@]7(C)CC[C@@H]65)C4)=C(c4ccc(C)cc4)C2=N3)cc1` (some centres not stated) yielded an absorption maximum (in ClC(Cl)Cl) of 662 nm.

Take `CCCCCCCCCCCn1cccc1C1=[N+]2C(=Cc3c(C)cc(C)n3[B-]2(F)F)c2ccccc21`: the absorption maximum (in C1CCOC1) stood at 584 nm; the absorption maximum (in CC#N) was found to be 577 nm; the absorption maximum (in CCCCCC) was determined as 583 nm; the absorption maximum (in CO) was 579 nm; the absorption maximum (in Cc1ccccc1) was found to be 590 nm; the absorption maximum (in ClCCl) was 584 nm.

Consider `Cc1cc(O)c(C(C)C)cc1/N=C/c1ccc(C(F)(F)F)cc1`, for which the absorption maximum is on record as 355 nm (in C1CCCCC1); 363 nm (in C1CCOC1); 361 nm (in C1COCCO1); 357 nm (in CC#N); 368 nm (in CC(C)(C)O); 367 nm (in CC(C)O). For the same compound, the absorption maximum by setting is: (in CCCCCC) 353 nm; (in CCCCO) 367 nm; (in CCO) 364 nm; (in CCOC(C)=O) 347 nm; (in CN(C)C=O) 364 nm; (in CO) 361 nm. Further, the absorption maximum runs as follows: (in CS(C)=O) 366 nm; (in ClC(Cl)Cl) 344 nm; (in ClCCl) 343 nm; (in O) 358 nm; (in OCCO) 363 nm.

Consider `CCCCC(CC)Cn1c2cc(C#N)ccc2c2cc(-c3ccc(N(c4ccccc4)c4ccccc4)cc3)c(C#N)cc21` (configuration not stated), for which the absorption maximum (in ClCCl) is recorded as 398 nm.

As to `COC(=O)c1ccc(/N=N/c2cc3c4c(c2)CCCN4CCC3)cc1`, the absorption maximum (in CCOC(C)=O) amounted to 474 nm.

With `C(=C\c1ccnc2ccccc12)/c1ccc(/C=C/c2ccnc3ccccc23)cc1`, the absorption maximum reads like this: (in C1CCCCC1) 364 nm; (in C1COCCO1) 370 nm; (in CC#N) 370 nm; (in CC(C)=O) 371 nm; (in CC(C)O) 374 nm; (in CCCO) 374 nm. For the same compound, the absorption maximum runs as follows: (in CCO) 374 nm; (in CN(C)C=O) 378 nm; (in CO) 374 nm; (in CS(C)=O) 382 nm; (in ClC(Cl)Cl) 370 nm; (in ClCCl) 370 nm. The absorption maximum (in OCCO) is 382 nm.

With `c1ccc2cc(-c3c4ccccc4c(-c4ccc(-n5c6ccccc6c6ccccc65)cc4)c4ccccc34)ccc2c1`, the absorption maximum (in ClCCl) is 377 nm.

For `COc1ccc(C2=[N+]3C(=Nc4c5c6cc(OC)c(OC)c(OC)c6c6cc(C(C)(C)C)ccc6c5c(-c5ccc(OC)cc5)n4[B-]3(F)F)c3c2c2ccc(C(C)(C)C)cc2c2c(OC)c(OC)c(OC)cc32)cc1`, the absorption maximum (in Cc1ccccc1) is given as 745 nm.

For the compound `O=P1(c2ccccc2)c2ccccc2-n2cccc21` (configuration not stated), the absorption maximum (in ClCCl) is 290 nm.

Take `Nc1nc2c(ncn2[C@H]2C[C@H](O)[C@@H](CO)O2)c(=O)[nH]1`: the absorption maximum (in O) was determined as 274 nm.

For the compound `C(=C\c1cccc2ccccc12)/c1ccc(Oc2ccc3ccccc3c2-c2c(Oc3ccc(/C=C/c4cccc5ccccc45)cc3)ccc3ccccc23)cc1`, the absorption maximum (in ClCCl) amounted to 334 nm.

The compound `O=c1c2ccccc2nc2n1[B-](F)(F)[n+]1ccccc1-2` had an absorption maximum (in CC#N) of 334 nm and an absorption maximum (in ClCCl) of 353 nm.

In turn, `CC(C)(C)c1ccc2c(c1)[nH]c1c3[nH]c4cc(C(C)(C)C)ccc4c3c3nsnc3c21` displayed an absorption maximum (in CN(C)C=O) of 412 nm, an absorption maximum (in Cc1ccccc1) of 406 nm and an absorption maximum (in ClCCl) of 411 nm.

Compound `CN(C)c1cc2oc3cc(N(C)C)c(F)cc3c(=O)c2cc1F` had an absorption maximum (in CCO) of 378 nm.

For `c1ccc(-n2c(-c3c(-n4c5ccccc5c5ccccc54)cccc3-n3c4ccccc4c4ccccc43)nc3ccccc32)cc1`, under “in C1CCOC1”, the absorption maximum was 342 nm.

For `O=C1C(=c2c(=O)c3c4ccccc4cc4cc5ccccc5c2c43)C(=O)c2ccccc21`, the absorption maximum (in ClCCl) stood at 518.56 nm.

`Cc1c(C)c(-c2cccnc2)c(C)c(C)c1B(c1c(C)c(C)c(-c2cccnc2)c(C)c1C)c1c(C)c(C)c(-c2cccnc2)c(C)c1C` gave an absorption maximum (in ClCCl) of 330 nm.

Regarding `Cc1cc(C)c(B(c2c(C)cc(C)cc2C)c2ccc3ccc4cccc5ccc2c3c45)c(C)c1`, the absorption maximum (in Cc1ccccc1) came out at 399 nm.

`COc1ccc(C2=[N+]3C(=Nc4c(-c5cc(OC)c(OC)c(OC)c5)cc(-c5ccc(OC)cc5)n4[B-]3(F)F)C(c3cc(OC)c(OC)c(OC)c3)=C2)cc1` returned an absorption maximum (in Cc1ccccc1) of 698 nm.

(Values after the Deep4Chem optical property database.)
